What was measured:
zfSult2st2 = biological target: T1, zfSult2st2 (Danio rerio, UniProt A0EXC5); experiment: […]PAPS sulfation assay, TLC and scintillation counting; type: biochemical; conditions: 14 μM PAPS, 50 mM Mops pH 7.0, 1 mM DTT, 28 °C; substrate inhibition constant
T1 sequence (A0EXC5 1-287): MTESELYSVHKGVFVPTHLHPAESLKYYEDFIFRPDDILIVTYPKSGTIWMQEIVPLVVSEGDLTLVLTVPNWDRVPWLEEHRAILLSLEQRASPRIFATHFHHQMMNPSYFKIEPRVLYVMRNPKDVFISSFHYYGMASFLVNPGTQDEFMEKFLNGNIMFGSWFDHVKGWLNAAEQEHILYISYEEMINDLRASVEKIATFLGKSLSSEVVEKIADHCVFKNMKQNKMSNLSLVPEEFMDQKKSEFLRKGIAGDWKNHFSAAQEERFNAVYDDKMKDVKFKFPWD

zfSult2st3 = biological target: T2, zfSult2st3 (Danio rerio, UniProt A0ACM8QCA3); experiment: as above; type: biochemical; conditions: 14 μM PAPS, 50 mM Mops pH 7.0, 1 mM DTT, 28 °C; substrate inhibition constant
T2 sequence (A0ACM8QCA3 1-288): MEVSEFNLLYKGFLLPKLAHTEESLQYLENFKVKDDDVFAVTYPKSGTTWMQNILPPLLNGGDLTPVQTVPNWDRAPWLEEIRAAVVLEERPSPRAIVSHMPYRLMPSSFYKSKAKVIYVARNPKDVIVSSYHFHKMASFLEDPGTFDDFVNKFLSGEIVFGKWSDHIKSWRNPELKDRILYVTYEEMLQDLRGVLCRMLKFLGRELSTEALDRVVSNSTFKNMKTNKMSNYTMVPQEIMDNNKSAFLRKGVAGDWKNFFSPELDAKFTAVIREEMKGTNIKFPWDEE

zfSult3st4 = biological target: T3, zfSult3st4 (Danio rerio, UniProt A0A8M1P203); experiment: as above; type: biochemical; conditions: 14 μM PAPS, 50 mM Mops pH 7.0, 1 mM DTT, 28 °C; substrate inhibition constant
T3 sequence (A0A8M1P203 1-299): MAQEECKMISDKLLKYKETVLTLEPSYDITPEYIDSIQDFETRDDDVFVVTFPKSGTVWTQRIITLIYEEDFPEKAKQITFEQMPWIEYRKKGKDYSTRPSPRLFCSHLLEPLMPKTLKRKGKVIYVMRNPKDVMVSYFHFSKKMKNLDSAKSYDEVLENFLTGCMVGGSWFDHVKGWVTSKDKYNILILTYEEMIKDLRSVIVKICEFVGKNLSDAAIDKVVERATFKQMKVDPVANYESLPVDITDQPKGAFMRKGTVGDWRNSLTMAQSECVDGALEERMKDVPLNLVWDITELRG

hSULT2A1 = biological target: T4, hSULT2A1 (Homo sapiens, UniProt Q06520); experiment: as above; type: biochemical; conditions: 14 μM PAPS, 50 mM Mops pH 7.0, 1 mM DTT, 37 °C; substrate inhibition constant
T4 sequence (Q06520 1-285): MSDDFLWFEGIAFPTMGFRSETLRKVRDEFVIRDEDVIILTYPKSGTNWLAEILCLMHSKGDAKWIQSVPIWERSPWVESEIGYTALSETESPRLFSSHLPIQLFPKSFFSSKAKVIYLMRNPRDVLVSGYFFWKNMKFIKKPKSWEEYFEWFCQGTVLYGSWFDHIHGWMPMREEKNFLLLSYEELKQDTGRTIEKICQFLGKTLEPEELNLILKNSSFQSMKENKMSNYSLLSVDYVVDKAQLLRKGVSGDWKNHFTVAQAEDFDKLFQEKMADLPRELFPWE

purified protein [1] = substrate: C[C@H](CCCC(CO)CO)[C@H]1CC[C@H]2[C@@H]3[C@H](O)C[C@@H]4C[C@H](O)CC[C@]4(C)[C@H]3C[C@H](O)[C@]12C; experiment: purified protein; type: biochemical, Danio rerio; conditions: 14 μM PAPS, 50 mM Mops pH 7.0, 1 mM DTT, 28 °C
purified protein [2] = substrate: C[C@H](CCCC(CO)CO)[C@H]1CC[C@H]2[C@@H]3[C@H](O)C[C@@H]4C[C@H](O)CC[C@]4(C)[C@H]3C[C@H](O)[C@]12C; experiment: purified protein; type: biochemical, Homo sapiens; conditions: 14 μM PAPS, 50 mM Mops pH 7.0, 1 mM DTT, 37 °C

C[C@H](CCCC(CO)CO)[C@H]1CC[C@H]2[C@@H]3[C@H](O)C[C@@H]4C[C@H](O)CC[C@]4(C)[C@H]3C[C@H](O)[C@]12C [5β-cyprinol]
Ki (zfSult2st2): 58.15 ± 5.74 µM
Ki (zfSult2st3): 39.78 ± 6.70 µM

C[C@H](CCCC(CO)CO)[C@H]1CC[C@H]2[C@@H]3[C@H](O)C[C@H]4C[C@H](O)CC[C@]4(C)[C@H]3C[C@H](O)[C@]12C [5α-cyprinol, 3α,7α,12α,26,27-pentahydroxy-5α-cholestane]
Ki (zfSult2st2): 27.43 ± 11.16 µM
Ki (zfSult3st4): 164.9 ± 22.2 µM
Ki (zfSult2st3): 373.9 ± 38.0 µM
Ki (hSULT2A1): 210.8 ± 19.9 µM

B1: zfSult3st4 (Danio rerio) (protein)
chain: MAQEECKMISDKLLKYKETVLTLEPSYDITPEYIDSIQDFETRDDDVFVVTFPKSGTVWTQRIITLIYEEDFPEKAKQITFEQMPWIEYRKKGKDYSTRPSPRLFCSHLLEPLMPKTLKRKGKVIYVMRNPKDVMVSYFHFSKKMKNLDSAKSYDEVLENFLTGCMVGGSWFDHVKGWVTSKDKYNILILTYEEMIKDLRSVIVKICEFVGKNLSDAAIDKVVERATFKQMKVDPVANYESLPVDITDQPKGAFMRKGTVGDWRNSLTMAQSECVDGALEERMKDVPLNLVWDITELRG
Km (purified protein [1]): 98.9 ± 2.89 µM
Vmax (purified protein [1]): 0.00397 µmol/min/mg

B2: hSULT2A1 (Homo sapiens) (protein)
chain: MSDDFLWFEGIAFPTMGFRSETLRKVRDEFVIRDEDVIILTYPKSGTNWLAEILCLMHSKGDAKWIQSVPIWERSPWVESEIGYTALSETESPRLFSSHLPIQLFPKSFFSSKAKVIYLMRNPRDVLVSGYFFWKNMKFIKKPKSWEEYFEWFCQGTVLYGSWFDHIHGWMPMREEKNFLLLSYEELKQDTGRTIEKICQFLGKTLEPEELNLILKNSSFQSMKENKMSNYSLLSVDYVVDKAQLLRKGVSGDWKNHFTVAQAEDFDKLFQEKMADLPRELFPWE
Km (purified protein [2]): 221.3 ± 23.1 µM
Vmax (purified protein [2]): 0.00224 µmol/min/mg

From article PMC5675747 (The Journal of steroid biochemistry and molecular biology, 2017)
